For experiment [1], the system named is parental and PI-resistant HMCLs. The experiment in a line: Cytotoxicity in human MM cell lines (HMCLs). It counts as cell-based. To be noted: parental and PI-resistant HMCLs (n=16), read-out: median IC50. The procedure: (§1) The effect of Compound 1 was tested in human MM cell lines (HMCLs) using cytotoxicity, colony formation, co-culture, qPCR, Western Blot, flow cytometry, ELISA, and lentiviral transduction experiments. The effect of Compound 1 was assessed in vivo in the 5TGM1 murine model of MM.

A further experiment concerns BMI-1. The experiment can be described thus: BMI-1 protein expression in HMCLs. It counts as cell-based, human. The following applies: within 24 hrs of treatment. The procedure: as §1
Experiment [2] has as its system MM cells. The experiment in a line: Time course experiments: mitotic arrest and apoptosis in MM cells. It counts as cell-based, human. The procedure: as §1
Experiment [3] relates to MYC, AKT, ERK, GSK3b, FOXM1. The experiment in a line: Central MM signalling cascades and key MM gene protein expression. It counts as cell-based, human. On the procedure: as §1
For experiment [4], the system named is MM cells. The experiment can be described thus: Drug combination studies in MM cell lines. It counts as cell-based, human. On the procedure: as §1
Another experiment has as its system 5TGM1 murine model of MM. The experiment in a line: 5TGM1 murine model of MM, bone marrow infiltration. It counts as in vivo. The following applies: 5TGM1 model. The procedure: as §1
Experiment [5] deals with microtubule polymerization. The experiment in a line: Mechanistic studies of microtubule polymerization.

Entries after “also recorded” stand apart in the source; their conditions may differ.

Here are results for one compound from US20220143016A1, “METHOD FOR TREATING A MULTIPLE MYELOMA” (PTC THERAPEUTICS, INC., priority 2019, published 2022).

For orientation: IC50 means the concentration that inhibits the measured activity by half.

As for `Cc1nc2ccc(F)cc2n1-c1nc(N)c(F)c(Nc2ccc(C(F)(F)F)cc2)n1` [Compound 1, 5-fluoro-2-(6-fluoro-2-methyl-1H-benzo[d]imidazol-1-yl)-N^4-[4-(trifluoromethyl)phenyl]pyrimidine-4,6-diamine], the IC50 in experiment [1] was 57.2 nM. Also, in the experiment on BMI-1, the BMI-1 protein expression result is given as “downregulated BMI-1 protein expression”. Further, the mitotic arrest result with MM cells [2] (6-24 h post treatment, elevated Cyclin B1, AURKA and BIRC5, downregulation of MCL1) was “potent mitotic arrest”. Besides, in the experiment with MM cells [2] (BMI-1 overexpression), the “rescue of MM cells with BMI-1 overexpression” value was “did not rescue”. For the same compound, the apoptosis entry in the experiment with MM cells [2] (after prolonged mitosis, Annexin V positive cells, cleaved caspases 8 and 9, cleaved PARP, loss of MCL1, mitochondrial membrane depolarization) is “induction of apoptosis”. Besides, in experiment [3], the “ERK and GSK3b activity” value is on record as “unaffected”; the “MYC and AKT activity” value is on record as “significant reduction”; the “MYC and FOXM1 protein expression” value is listed as “Downregulation”. Further, in the experiment on MM cells [4] (IMiDs, Dex, PIs, MEL, BH3 mimetics targeting BCL2, BCLxL, MCL1, in individual cell lines), the “combination effect with established drugs and BH3 mimetics” value is “synergism”. In addition, the “combination effect with epigenetic modulators” value in the experiment on MM cells [4] (targeting EZH2, CBP/EP300, BRD4, HDACs) is on record as “Consistent synergism”. For the same compound, in the experiment on 5TGM1 murine model of MM (30 mg/kg/biweekly), the “MM cells after treatment” value is recorded as “complete eradication of MM cells”. Also, the BM infiltration result in the experiment on 5TGM1 murine model of MM (various doses versus vehicle (FIG. 1, *P<0.0001)) was “dose response reduction; also recorded: reproducible dose dependent reduction”. The microtubule polymerization entry in experiment [5] is “inhibits microtubule polymerization”.
